Patent US8809545B2, “Aryl pyridine as aldosterone synthase inhibitors” (Novartis AG, priority 2009, dated 2014)

Experiments:
[1] = molecular target: T1, CYP11B1 (steroid 11 β-hydroxylase) (Homo sapiens, UniProt P15538); test: Cortisol cell secretion in NCI-H295R cells (in vitro inhibitory activity for CYP11B1); format: cell-based; conditions: compound at 1 μM
T1 construct: the NCI-H295R cells have CYP11B1 (steroid 11 β-hydroxylase); host or cells: NCI-H295R
T1 sequence (P15538 25-503): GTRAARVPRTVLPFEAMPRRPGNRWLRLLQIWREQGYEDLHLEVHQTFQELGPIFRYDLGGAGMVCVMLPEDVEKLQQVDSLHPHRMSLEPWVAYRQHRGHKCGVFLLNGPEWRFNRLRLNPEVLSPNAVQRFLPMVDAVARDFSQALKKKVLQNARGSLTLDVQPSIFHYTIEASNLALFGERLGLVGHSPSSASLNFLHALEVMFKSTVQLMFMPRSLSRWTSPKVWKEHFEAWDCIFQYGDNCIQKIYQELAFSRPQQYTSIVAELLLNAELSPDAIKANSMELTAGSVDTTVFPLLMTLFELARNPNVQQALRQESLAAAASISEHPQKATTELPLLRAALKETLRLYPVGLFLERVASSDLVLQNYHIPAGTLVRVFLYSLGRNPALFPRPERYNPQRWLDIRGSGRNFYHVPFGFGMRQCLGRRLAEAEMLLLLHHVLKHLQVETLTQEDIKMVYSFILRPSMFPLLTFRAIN
From the text: The in vitro inhibitory activities for CYP11B1 can be determined by the following assay.
The cell line NCI-H295R was originally isolated from an adrenocortical carcinoma and has been characterized in the literature through the stimulable secretion of steroid hormones and the presence of the enzymes essential for steroidogenesis. Thus, the NCI-H295R cells have CYP11B1 (steroid 11 β-hydroxylase). The cells show the physiological property of zonally undifferentiated human fetal adrenocortical cells which, however, have the capacity to produce the steroid hormones which are formed in the three, phenotypically distinguishable zones in the adult adrenal cortex.
The NCI-H295R cells (American Type Culture Collection, ATCC, Rockville, Md., USA) are grown in Dulbeoco's Modified Eagle'Ham F-12 Medium (DME/F12), which has been supplemented with Ulroser SF Serum (Soprachem, Cergy-Saint-Christophe, France), insulin, transferrin, selenite (I-T-S, Becton Dickinson Biosiences, Franklin lakes, N.J., USA) and antibiotics in 75 cm^2 cell culture vessels at 37° C. and in a 95% air-5% carbon dioxide atmosphere. The cells are subsequently transferred for colony formation into a 24-well incubation vessel. They are cultivated there in DME/F12 medium, which is now supplemented with 0.1% bovine serum instead of Ultroser SF for 24 hours. The experiment is initiated by cultivating the cells in DME/F12 medium which is supplemented with 0.1% bovine serum albumin and test compound, in the presence or absence of cell stimulants, for 72 hours. The test substance is added in a concentration range from 0.2 nanomolar to […]. Cell stimulants which can be used are angiotensin II ([…] or 100 nanomolar), potassium ions (16 millimolar), forskolin (10 micromolar) or a combination of two stimulants.
The excretion of aldosterone, cortisol, corticosterone and estradiol/estrone into the culture medium can be detected and quantified by commercially available, specific monoclonal antibodies in radioimmunoassays in accordance with the manufacturer's instructions.
(§1) Inhibition of the release of certain steroids can be used as a measure of the respective enzyme inhibition by the added test compounds. The dose-dependent inhibition of enzymatic activity by a compound is calculated by means of an inhibition plot which is characterized by an IC50.
The inhibition activity of CYP11B1 production can also be expressed in percentage inhibition (% inhibition) at a given concentration (e.g. % inhibition at 1 μM), which is the cortisol level when cell is treated with the given concentration of a compound of the invention (e.g. concentration of 1 μM) versus the cortisol excretion when cell is free of the compound of the invention. % inhibition cortisol production=[(Y′−X′)/Y′]×100 wherein X′ is the level of cortisol when the cell is treated with a compound of Formula I; and Y′ is the level of cortisol when the cell is free of compound of Formula I.

aldosterone synthase = molecular target: T2, aldosterone synthase (Homo sapiens, UniProt P19099); test: Aldosterone cell secretion in Ang II-stimulated NCI-H295R cells (SPA with anti-aldosterone antibody); format: cell-based; conditions: human adrenocortical carcinoma NCI-H295R cells, 1 μM Ang II, 24 h
T2 construct: host or cells: NCI-H295R
T2 sequence (P19099 25-503): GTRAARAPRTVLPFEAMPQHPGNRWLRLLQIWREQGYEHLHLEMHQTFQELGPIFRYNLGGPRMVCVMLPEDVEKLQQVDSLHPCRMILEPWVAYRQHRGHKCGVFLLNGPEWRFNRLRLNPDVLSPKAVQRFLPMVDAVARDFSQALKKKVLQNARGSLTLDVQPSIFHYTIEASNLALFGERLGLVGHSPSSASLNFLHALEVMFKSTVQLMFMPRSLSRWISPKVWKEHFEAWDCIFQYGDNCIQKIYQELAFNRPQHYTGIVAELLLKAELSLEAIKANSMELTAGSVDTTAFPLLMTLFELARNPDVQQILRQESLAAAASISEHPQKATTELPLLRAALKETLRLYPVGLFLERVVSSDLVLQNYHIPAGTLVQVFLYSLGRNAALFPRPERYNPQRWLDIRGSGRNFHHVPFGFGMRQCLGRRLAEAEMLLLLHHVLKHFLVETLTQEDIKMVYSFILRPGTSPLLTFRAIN
From the text: In particular, the aldosterone synthase inhibitory activities in vitro can be determined by the following assay.
Human adrenocortical carcinoma NCI-H295R cell line was obtained from American Type Culture Collection (Manassas, Va.). Insulin/transferrin/selenium (ITS)-A supplement (100×), DMEM/F-12, antibiotic/antimycotic (100×), and fetal bovine serum (FBS) were purchased from Invitrogen (Carlsbad, Calif.). Anti-mouse PVT scintillation proximity assay (SPA) beads and NBS 96-well plates were obtained from GE Health Sciences (Piscataway, N.J.) and Corning (Acton, Mass.), respectively. Solid black 96-well flat bottom plates were purchased from Costar (Corning, N.Y.). Aldosterone and angiotensin (Ang II) were purchased from Sigma (St. Louis, Mo.). D-[1,2,6,7-^3H(N)]aldosterone was acquired from PerkinElmer (Boston, Mass.). Nu-serum was a product of BD Biosciences (Franklin Lakes, N.J.).
On the following day, cells are rinsed with 100 μL of phosphate-buffered saline (PBS) and incubated with 100 μL of treatment medium containing 1 μM Ang II and a compound at different concentrations in quadruplicate wells at 37° C. for 24 h. At the end of incubation, 50 μL of medium is withdrawn from each well for measurement of aldosterone production by an SPA using mouse anti-aldosterone monoclonal antibodies.
Measurement of aldosterone activity can also be performed using a 96-well plate format. […] Anti-mouse PVT SPA beads (50 μL) are then added to each well and incubated overnight at room temperature prior to counting in a Microbeta plate counter. The amount of aldosterone in each sample is calculated by comparing with a standard curve generated using known quantities of the hormone.
as §1
The inhibition plot is calculated by fitting a 4-parameter logistic function to the raw data points using the least squares method. The equation of the 4-parameter logistic function is calculated as follows: Y=(d−a)/((1+(x/c)b))+a, where: a=minimum data level, b=gradient, I […], d=maximum data level, x=inhibitor concentration.

SMILES	inhibition at 1 µM ([1]; NCI-H295R)	IC50 (aldosterone synthase)	other results
CCS(=O)(=O)NC1CC1c1cncc(-c2cccc(Cl)c2Cl)c1 (stereo not drawn) [N-(2-(5-(2,3-dichlorophenyl)pyridin-3-yl)cyclopropyl)ethane-sulfonamide]	75%	3 nM	
CCS(=O)(=O)N(CCO)C(c1cncc(-c2ccc(C#N)c(Cl)c2)c1)C1CC1 (stereo not drawn) [Ethanesulfonic acid {[5-(3-chloro-4-cyano-phenyl)-pyridin-3-yl]-cyclopropyl-methyl}-(2-hydroxy-ethyl)-amide]	51%	20 nM	
CCS(=O)(=O)N[C@H](c1cncc(-c2ccc(C#N)c(Cl)c2)c1)C1CC1 [(S)-N-((5-(3-chloro-4-cyanophenyl)pyridin-3-yl)(cyclopropyl)methyl)ethanesulfonamide]	38%	24 nM	
CCCC(NS(=O)(=O)CC)c1cncc(-c2ccc(C#N)c(Cl)c2)c1 (single isomer, unassigned) [N-(1-(5-(3-chloro-4-cyanophenyl)pyridin-3-yl)butyl)ethanesulfonamide]	26%	89 nM	
CCS(=O)(=O)NCc1cncc(-c2cc3cnc(Cl)cc3n2C)c1 [Ethanesulfonic acid [5-(6-chloro-1-methyl-1H-pyrrolo[3,2-c]pyridin-2-yl)-pyridin-3-ylmethyl]-amide]		165 nM	inhibition at 1 µM [1]: 15%
CCCC(NS(=O)(=O)CC)c1cncc(-c2ccc(C#N)c(Cl)c2)c1 (racemic) [N-(1-(5-(3-chloro-4-cyanophenyl)pyridin-3-yl)butyl)ethanesulfonamide: Racemate, N-(1-(5-(3-chloro-4-cyanophenyl)pyridin-3-yl)butyl)ethanesulfonamide]	25%	132 nM	
CCS(=O)(=O)NC(C)c1cncc(-c2ccc(C#N)c(OC)c2)c1 (single isomer, unassigned) [N-(1-(5-(4-cyano-3-methoxyphenyl)pyridin-3-yl)ethyl)ethanesu] [N-(1-(5-(4-cyano-3-methoxyphenyl)pyridin-3-yl)ethyl)ethanesulfonamide]			Cortisol cell secretion (% inhibition @ 1 μM) [1]: 27%
CCS(=O)(=O)NC(C)c1cncc(-c2ccc(C#N)c(OC)c2)c1 (single isomer, unassigned) [N-(1-(5-(4-cyano-3-methoxyphenyl)pyridin-3-yl)ethyl)ethanesulfonamide]	38%		IC50 (aldosterone synthase; Enantiomer 1): 64 nM; IC50 (aldosterone synthase; Enantiomer 2): 140 nM
CCS(=O)(=O)NC(c1cncc(-c2ccc(C#N)c(OC)c2)c1)C1CC1 (single isomer, unassigned) [N-((5-(4-cyano-3-methoxyphenyl)pyridin-3-yl)(cyclopropyl)met] [N-(5-(4-cyano-3-methoxyphenyl)pyridin-3-yl)(cyclopropyl)methyl)ethanesulfonamide]			Cortisol cell secretion (% inhibition @ 1 μM) [1]: 44%
N#Cc1ccc(-c2cncc(CN3CCCS3(=O)=O)c2)cc1Cl [2-Chloro-4-[5-(1,1-dioxo-isothiazolidin-2-ylmethyl)-pyridin-3-yl]-benzonitrile]	64%	12 nM	
CCS(=O)(=O)NC(C)c1cncc(-c2ccc(C#N)c(Cl)c2)c1 (single isomer, unassigned) [N-(1-(5-(3-chloro-4-cyanophenyl)pyridin-3-yl)ethyl)ethanesul] [N-(1-(5-(3-chloro-4-cyanophenyl)pyridin-3-yl)ethyl)ethanesulfonamide]			Cortisol cell secretion (% inhibition @ 1 μM) [1]: 50%

More lines, main results first:

inhibition at 1 µM ([1]; NCI-H295R)	IC50 (aldosterone synthase)	SMILES	other results
39%	5 nM	CCS(=O)(=O)NC(c1cncc(-c2cccc(Cl)c2Cl)c1)C1CC1 (stereo not drawn) [N-(cyclopropyl(5-(2,3-dichlorophenyl)pyridin-3-yl)methyl)ethanesulfonamide]	
34%	45 nM	N#Cc1ccc(-c2cncc(NS(=O)(=O)Cc3ccccc3Cl)c2)cc1Cl [N-(5-(3-chloro-4-cyanophenyl)pyridin-3-yl)-1-(2-chlorophenyl)methanesulfonamide]	
78%	6 nM	CCc1ccc(S(=O)(=O)Nc2cncc(-c3ccc(C#N)c(Cl)c3)c2)cc1 [N-[5-(3-Chloro-4-cyano-phenyl)-pyridin-3-yl]-4-ethyl-benzene-sulfonamide]	
74.5%	9 nM	COc1ccc(S(=O)(=O)Nc2cncc(-c3ccc(C#N)c(Cl)c3)c2)cc1 [N-[5-(3-Chloro-4-cyano-phenyl)-pyridin-3-yl]-4-methoxy-benzene-sulfonamide]	
38%	33 nM	CCS(=O)(=O)Nc1cncc(-c2ccc(C#N)c(OC)c2)c1 [N-(5-(4-cyano-3-methoxyphenyl)pyridin-3-yl)ethanesulfonamide]	
63%	5 nM	CCS(=O)(=O)N(C)C(c1cncc(-c2ccc(C#N)c(Cl)c2)c1)C1CC1 (stereo not drawn) [N-((5-(3-chloro-4-cyanophenyl)pyridin-3-yl)(cyclopropyl)methyl)-N-methylethanesulfonamide]	
31%	42 nM	CCS(=O)(=O)NC(c1cncc(-c2ccc(Cl)cc2)c1)C1CC1 (stereo not drawn) [N-((5-(4-chlorophenyl)pyridin-3-yl)(cyclopropyl)methyl)-ethanesulfonamide]	
39%	167 nM	CCS(=O)(=O)NC(c1cncc(-c2ccc(C#N)cc2F)c1)C1CC1 (stereo not drawn) [N-(5-(4-cyano-2-fluorophenyl)pyridin-3-yl)(cyclopropyl)methyl)ethanesulfonamide]	
